The text below walks through data of patent US9938273B2 (Plexxikon Inc., priority 2015, dated 2018).

For orientation: IC50 means the concentration needed to halve the response being measured.

In experiment [1] the target is T1, BA/F3-FLT3-ITD + D835Y cells (Homo sapiens, UniProt P36888, D835Y, cells depend on it, form not given).
T1 sequence (P36888 1-993 D835Y): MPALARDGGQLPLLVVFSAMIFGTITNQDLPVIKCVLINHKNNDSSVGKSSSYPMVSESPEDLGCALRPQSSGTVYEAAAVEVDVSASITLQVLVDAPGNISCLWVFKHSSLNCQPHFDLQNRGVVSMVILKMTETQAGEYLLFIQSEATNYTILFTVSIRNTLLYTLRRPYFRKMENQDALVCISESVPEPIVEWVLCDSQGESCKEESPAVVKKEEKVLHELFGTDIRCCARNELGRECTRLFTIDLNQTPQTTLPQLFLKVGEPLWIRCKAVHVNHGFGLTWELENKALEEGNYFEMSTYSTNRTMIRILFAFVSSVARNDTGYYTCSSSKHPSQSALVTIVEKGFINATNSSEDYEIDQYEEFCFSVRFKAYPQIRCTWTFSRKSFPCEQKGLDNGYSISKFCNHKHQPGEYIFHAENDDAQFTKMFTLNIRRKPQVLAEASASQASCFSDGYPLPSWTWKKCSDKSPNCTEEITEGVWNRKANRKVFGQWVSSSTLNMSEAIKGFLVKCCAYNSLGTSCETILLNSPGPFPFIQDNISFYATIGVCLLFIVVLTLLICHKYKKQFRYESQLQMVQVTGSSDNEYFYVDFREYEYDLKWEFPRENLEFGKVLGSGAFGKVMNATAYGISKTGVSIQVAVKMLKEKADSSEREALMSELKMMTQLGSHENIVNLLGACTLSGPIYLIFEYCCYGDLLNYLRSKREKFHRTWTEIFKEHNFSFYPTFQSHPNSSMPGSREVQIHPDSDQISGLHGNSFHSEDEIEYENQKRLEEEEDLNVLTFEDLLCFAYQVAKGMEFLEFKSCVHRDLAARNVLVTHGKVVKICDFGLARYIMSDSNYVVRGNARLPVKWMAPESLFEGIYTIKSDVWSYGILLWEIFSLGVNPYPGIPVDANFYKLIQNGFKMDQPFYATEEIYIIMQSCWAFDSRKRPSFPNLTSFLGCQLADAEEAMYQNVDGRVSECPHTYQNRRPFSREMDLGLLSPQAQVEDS
Nature of the experiment: Cell proliferation assay (CellTiter-Glo), engineered BA/F3 cells. Format: cell-based, murine. The settings on record: BaF3 FLT3 ITD/D835Y cells, 3d-Growth; read-out: BaF3_FLT3 ITD/D835Y 3d-Growth: IC50. The method, boiled down:
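Three-day growth at 37 °C, 5% CO2 under compound (1 μM top final, 1:3 dilutions, eight points, 0.2% DMSO), read as ATP luminescence by CellTiter-Glo for IC50. Cells: MOLM-14 with FLT3 ITD plus D835Y or F691L, and IL-3-deprived Ba/F3 transfected with FLT3 ITD/D835Y, 1×10^4 per well.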
On the technique in general: Cellular ATP, detected with luciferase, serves as a proxy for viable cell number.

The target of experiment [2] is T2, c-KIT (Homo sapiens, UniProt P10721).
T2 construct: purchased Millipore 14-559K
T2 sequence (P10721 26-976): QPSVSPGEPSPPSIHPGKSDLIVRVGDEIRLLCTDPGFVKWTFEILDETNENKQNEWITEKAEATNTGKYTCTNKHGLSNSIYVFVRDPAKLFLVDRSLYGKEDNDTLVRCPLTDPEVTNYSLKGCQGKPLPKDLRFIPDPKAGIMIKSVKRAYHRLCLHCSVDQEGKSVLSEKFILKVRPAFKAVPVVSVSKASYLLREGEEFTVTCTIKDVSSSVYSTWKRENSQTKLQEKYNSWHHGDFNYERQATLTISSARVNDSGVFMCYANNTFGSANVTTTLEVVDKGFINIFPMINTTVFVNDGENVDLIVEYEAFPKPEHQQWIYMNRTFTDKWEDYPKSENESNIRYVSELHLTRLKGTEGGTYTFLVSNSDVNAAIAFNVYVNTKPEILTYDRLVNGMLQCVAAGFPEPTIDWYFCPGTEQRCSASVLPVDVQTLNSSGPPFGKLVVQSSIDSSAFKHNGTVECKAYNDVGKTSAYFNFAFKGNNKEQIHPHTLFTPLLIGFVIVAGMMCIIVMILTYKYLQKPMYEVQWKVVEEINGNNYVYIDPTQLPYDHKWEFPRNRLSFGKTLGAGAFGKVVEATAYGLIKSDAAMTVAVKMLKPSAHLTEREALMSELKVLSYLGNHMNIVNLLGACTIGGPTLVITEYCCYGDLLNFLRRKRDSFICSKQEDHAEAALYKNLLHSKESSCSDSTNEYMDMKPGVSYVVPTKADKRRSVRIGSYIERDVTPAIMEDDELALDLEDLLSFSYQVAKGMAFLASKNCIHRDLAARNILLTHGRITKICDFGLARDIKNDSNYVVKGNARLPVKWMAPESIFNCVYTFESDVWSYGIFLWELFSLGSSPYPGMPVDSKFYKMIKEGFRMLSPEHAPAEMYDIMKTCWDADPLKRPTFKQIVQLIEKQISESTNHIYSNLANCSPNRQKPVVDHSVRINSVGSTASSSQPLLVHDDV
The experiment is described as follows: AlphaScreen kinase assay with recombinant enzyme, c-KIT. Format: biochemical. The settings on record: 100ATP, 8pt, GMean. The method, boiled down: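 AlphaScreen, biotinylated poly(Glu4-Tyr) 30 nM final; PY20 anti-pTyr acceptor and streptavidin donor beads 10 μg/mL; IC50 final conc. 10 μM (FLT3-D835Y, FLT3-ITD) / 100 μM (c-KIT); detection incubations 20 + 60 min RT; 580 nm emission.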

SMILES strings stand for the structures.

As for `c1ccc(-c2cc3cc(-c4ccc5[nH]nc(NC6CCNCC6)c5c4)cnc3[nH]2)cc1` [Compound P-0056, 5-(2-phenyl-1H-pyrrolo[2,3-b]pyridin-5-yl)-N-(4-piperidyl)-1H-indazol-3-amine], in experiment [1], the GI50 lay within 0.0001 to 10 µM. Further, in experiment [2], the IC50 was 0.0001 to 10 µM.

In the case of `Cc1ccc(-c2cnc3[nH]c(-c4ccccc4)cc3c2)nc1C(=O)N1CCC(N)CC1` [Compound P-0033, (4-amino-1-piperidyl)-[3-methyl-6-(2-phenyl-1H-pyrrolo[2,3-b]pyridin-5-yl)-2-pyridyl]methanone], the GI50 in experiment [1] lay within 0.0001 to 10 µM. Besides, the IC50 in experiment [2] was 0.0001 to 10 µM.

Take `NC1CN(C(=O)c2n[nH]c3ccc(-c4cnc5[nH]c(-c6ccccc6)cc5c4)cc23)C1` [Compound P-0029, (3-aminoazetidin-1-yl)-[5-(2-phenyl-1H-pyrrolo[2,3-b]pyridin-5-yl)-1H-indazol-3-yl]methanone]: the GI50 in experiment [1] fell in the range of 0.0001 to 10 µM. Further, in experiment [2], the IC50 was in the range of 0.0001 to 10 µM.

On to `CNC(=O)C1CCN(C(=O)c2cccc(-c3cnc4[nH]c(-c5ccccc5)cc4c3)n2)CC1` [Compound P-0030, N-methyl-1-[6-(2-phenyl-1H-pyrrolo[2,3-b]pyridin-5-yl)pyridine-2-carbonyl]piperidine-4-carboxamide], for which the GI50 in experiment [1] lay in the range of 0.0001 to 10 µM. For the same compound, in experiment [2], the IC50 lay within 0.0001 to 10 µM.

On to `CN(C(=O)c1cccc(-c2cnc3[nH]c(-c4ccccc4)cc3c2)n1)C1CCNC1` (stereo not drawn) [Compound P-0076, N-methyl-6-(2-phenyl-1H-pyrrolo[2,3-b]pyridin-5-yl)-N-pyrrolidin-3-yl-pyridine-2-carboxamide], for which the GI50 in experiment [1] was 0.0001 to 10 µM.

As to `CNC1CCN(C(=O)c2cccc(-c3cnc4[nH]c(-c5ccccc5)cc4c3)n2)CC1` [Compound P-0041, [4-(methylamino)-1-piperidyl]-[6-(2-phenyl-1H-pyrrolo[2,3-b]pyridin-5-yl)-2-pyridyl]methanone], the GI50 in experiment [1] was 0.0001 to 10 µM. The IC50 in experiment [2] fell in the range of 0.0001 to 10 µM.

Take `CC1(N)CCCN(C(=O)c2cccc(-c3cnc4[nH]c(-c5ccccc5)cc4c3)n2)C1` (stereo not drawn) [Compound P-0082, (3-amino-3-methyl-1-piperidyl)-[6-(2-phenyl-1H-pyrrolo[2,3-b]pyridin-5-yl)-2-pyridyl]methanone]: the GI50 in experiment [1] lay within 0.0001 to 10 µM.

For the compound `N[C@H]1CCN(C(=O)c2cc(-c3cnc4[nH]c(-c5ccccc5)cc4c3)ccn2)C1` [Compound P-0046, [(3S)-3-aminopyrrolidin-1-yl]-[4-(2-phenyl-1H-pyrrolo[2,3-b]pyridin-5-yl)-2-pyridyl]methanone], the GI50 in experiment [1] was in the range of 0.0001 to 10 µM. Further, the IC50 in experiment [2] was in the range of 0.0001 to 10 µM.

`NC1CCCN(C(=O)c2cccc(-c3cnc4[nH]c(-c5ccccc5)cc4c3)n2)C1` (stereo not drawn) [Compound P-0067, (3-amino-1-piperidyl)-[6-(2-phenyl-1H-pyrrolo[2,3-b]pyridin-5-yl)-2-pyridyl]methanone]: the GI50 in experiment [1] lay within 0.0001 to 10 µM. Also, the IC50 in experiment [2] was 0.0001 to 10 µM.

Regarding `CC1(N)CCN(C(=O)c2cccc(-c3cnc4[nH]c(-c5ccccc5)cc4c3)n2)CC1` [Compound P-0081, (4-amino-4-methyl-1-piperidyl)-[6-(2-phenyl-1H-pyrrolo[2,3-b]pyridin-5-yl)-2-pyridyl]methanone], the GI50 in experiment [1] is 0.0001 to 10 µM.

As to `COC(=O)C1(C)CCN(C(=O)c2cccc(-c3cnc4[nH]c(-c5ccccc5)cc4c3)n2)CC1` [Compound P-0092, methyl 4-methyl-1-[6-(2-phenyl-1H-pyrrolo[2,3-b]pyridin-5-yl)pyridine-2-carbonyl]piperidine-4-carboxylate], the GI50 in experiment [1] lay in the range of 0.0001 to 10 µM. Besides, in experiment [2], the IC50 fell in the range of 50 to 100 µM.

Turning to `CNC1CCN(Cc2cccc(-c3cnc4[nH]c(-c5ccccc5)cc4c3)n2)C1` (stereo not drawn) [Compound P-0087, N-methyl-1-[[6-(2-phenyl-1H-pyrrolo[2,3-b]pyridin-5-yl)-2-pyridyl]methyl]pyrrolidin-3-amine], in experiment [1], the GI50 lay within 0.0001 to 10 µM. In addition, the IC50 in experiment [2] is 0.0001 to 10 µM.

Turning to `O=C(NC1CCNCC1)c1n[nH]c2ccc(-c3cnc4[nH]c(-c5ccccc5)cc4c3)cc12` [Compound P-0039, 5-(2-phenyl-1H-pyrrolo[2,3-b]pyridin-5-yl)-N-(4-piperidyl)-1H-indazole-3-carboxamide], the GI50 in experiment [1] lay within 0.0001 to 10 µM. Besides, the IC50 in experiment [2] lay within 0.0001 to 10 µM.

For `N[C@H]1CCN(C(=O)c2cccc(-c3cnc4[nH]c(-c5ccccc5)cc4c3)c2)C1` [Compound P-0036, [(3S)-3-aminopyrrolidin-1-yl]-[3-(2-phenyl-1H-pyrrolo[2,3-b]pyridin-5-yl)phenyl]methanone], the GI50 in experiment [1] was 0.0001 to 10 µM. In addition, the 50% inhibitory concentration (IC50) in experiment [2] was 0.0001 to 10 µM.

In the case of `NC1CCN(C(=O)c2c[nH]c3ccc(-c4cnc5[nH]c(-c6ccccc6)cc5c4)cc23)CC1` [Compound P-0042, (4-amino-1-piperidyl)-[5-(2-phenyl-1H-pyrrolo[2,3-b]pyridin-5-yl)-1H-indol-3-yl]methanone], the GI50 in experiment [1] was in the range of 0.0001 to 10 µM. Besides, the IC50 in experiment [2] is 0.0001 to 10 µM.

Take `CS(=O)(=O)NC1CCN(C(=O)c2cccc(-c3cnc4[nH]c(-c5ccccc5)cc4c3)n2)CC1` [Compound P-0032, N-[1-[6-(2-phenyl-1H-pyrrolo[2,3-b]pyridin-5-yl)pyridine-2-carbonyl]-4-piperidyl]methanesulfonamide]: in experiment [1], the GI50 is 0.0001 to 10 µM. Besides, in experiment [2], the IC50 fell in the range of 10 to 50 µM.

`O=C(c1cccc(-c2cnc3[nH]c(-c4ccccc4)cc3c2)n1)N1CCC(O)C1` (stereo not drawn) [Compound P-0068, (3-hydroxypyrrolidin-1-yl)-[6-(2-phenyl-1H-pyrrolo[2,3-b]pyridin-5-yl)-2-pyridyl]methanone]: in experiment [1], the GI50 fell in the range of 0.0001 to 10 µM. Besides, the half-maximal inhibitory concentration (IC50) in experiment [2] is 0.0001 to 10 µM.

Take `N=C(N)N1CCN(C(=O)c2cccc(-c3cnc4[nH]c(-c5ccccc5)cc4c3)n2)CC1` [Compound P-0057, 4-[6-(2-phenyl-1H-pyrrolo[2,3-b]pyridin-5-yl)pyridine-2-carbonyl]piperazine-1-carboxamidine]: in experiment [1], the GI50 lay in the range of 0.0001 to 10 µM. Also, the 50% inhibitory concentration (IC50) in experiment [2] lay within 0.0001 to 10 µM.

`NC1CCN(C(=O)c2n[nH]c3ccc(-c4cnc5[nH]c(C6=CCN(C(=O)C7CC7)C6)cc5c4)cc23)CC1` [Compound P-0074, (4-amino-1-piperidyl)-[5-[2-[1-(cyclopropanecarbonyl)-2,5-dihydropyrrol-3-yl]-1H-pyrrolo[2,3-b]pyridin-5-yl]-1H-indazol-3-yl]methanone]: the GI50 in experiment [1] lay within 0.0001 to 10 µM. Moreover, the IC50 in experiment [2] lay in the range of 10 to 50 µM.

For `c1ccc(-c2cc3cc(-c4ccc5[nH]nc(NC6CNC6)c5c4)cnc3[nH]2)cc1` [Compound P-0053, N-(azetidin-3-yl)-5-(2-phenyl-1H-pyrrolo[2,3-b]pyridin-5-yl)-1H-indazol-3-amine], the GI50 in experiment [1] was 0.0001 to 10 µM. Also, the IC50 in experiment [2] fell in the range of 0.0001 to 10 µM.

As to `CCNC(=O)NC1CCN(C(=O)c2cccc(-c3cnc4[nH]c(-c5ccccc5)cc4c3)n2)CC1` [Compound P-0031, 1-ethyl-3-[1-[6-(2-phenyl-1H-pyrrolo[2,3-b]pyridin-5-yl)pyridine-2-carbonyl]-4-piperidyl]urea], the GI50 in experiment [1] fell in the range of 0.0001 to 10 µM. The IC50 in experiment [2] lay in the range of 0.0001 to 10 µM.

With `N[C@@H]1CN(C(=O)c2cccc(-c3cnc4[nH]c(-c5ccccc5)cc4c3)n2)CC12CC2` [Compound P-0083, [(7S)-7-amino-5-azaspiro[2.4]heptan-5-yl]-[6-(2-phenyl-1H-pyrrolo[2,3-b]pyridin-5-yl)-2-pyridyl]methanone], the GI50 in experiment [1] was 0.0001 to 10 µM.

For `N[C@H]1CCN(C(=O)c2csc(-c3cnc4[nH]c(-c5ccccc5)cc4c3)n2)C1` [Compound P-0048, [(3S)-3-aminopyrrolidin-1-yl]-[2-(2-phenyl-1H-pyrrolo[2,3-b]pyridin-5-yl)thiazol-4-yl]methanone], the GI50 in experiment [1] was 50 to 100 µM.

On to `CNC1CCCN(C(=O)c2cccc(-c3cnc4[nH]c(-c5ccccc5)cc4c3)n2)C1` (stereo not drawn) [Compound P-0080, [3-(methylamino)-1-piperidyl]-[6-(2-phenyl-1H-pyrrolo[2,3-b]pyridin-5-yl)-2-pyridyl]methanone], for which the GI50 in experiment [1] lay in the range of 0.0001 to 10 µM.
